In ChEMBL document CHEMBL1201862, “PubChem BioAssay data set” (2004):
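Exposure lasted 48 hours, with cells grown in 96-well plates and compounds tested at five concentrations. GI50 marks 50% less growth.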 Calls of active or inactive are those of the source. Rule as the data show it: active = GI50 up to about 1.1 µM and inactive = higher.

Experiments:
Test in all cases: NCI anticancer screen, dose series, 48 h
T47D = test system: T47D
NCI-H522 = test system: NCI-H522
786-0 = test system: 786-0
UACC-62 = test system: UACC-62
NCI-H226 = test system: NCI-H226
SF-268 = test system: SF-268
PC-3 = test system: PC-3
KM12 = test system: KM12
SK-MEL-28 = test system: SK-MEL-28
SF-295 = test system: SF-295
DU-145 = test system: DU-145
MCF7 = test system: MCF7
SNB-19 = test system: SNB-19
A549 = test system: A549
K562 = test system: K562
OVCAR-4 = test system: OVCAR-4
SK-OV-3 = test system: SK-OV-3
HL-60 = test system: HL-60
MDA-N = test system: MDA-N

Measured: GI50

Cc1c(C(=O)O)sc2nc[nH]c(=O)c12
inactive: T47D > 100 µM | NCI-H522 > 100 µM | 786-0 > 100 µM | UACC-62 > 100 µM | NCI-H226 25.1 µM | SF-268 > 100 µM | PC-3 > 100 µM | KM12 > 100 µM | SK-MEL-28 > 100 µM | SF-295 > 100 µM | DU-145 > 100 µM | MCF7 > 100 µM | SNB-19 > 100 µM | A549 > 100 µM | K562 > 100 µM | OVCAR-4 > 100 µM | SK-OV-3 > 100 µM | HL-60 > 100 µM

CC[N+](C)(CC)CCN1C(=O)c2ccccc2S1(=O)=O
inactive: T47D > 100 µM | NCI-H522 > 100 µM | 786-0 > 100 µM | UACC-62 > 100 µM | NCI-H226 > 100 µM | SF-268 > 100 µM | PC-3 > 100 µM | KM12 > 100 µM | SK-MEL-28 > 100 µM | SF-295 > 100 µM | DU-145 > 100 µM | MCF7 > 100 µM | SNB-19 > 100 µM | A549 > 100 µM | OVCAR-4 > 100 µM | SK-OV-3 > 100 µM | HL-60 > 100 µM

OC(CC(O)(C(F)(F)F)C(F)(F)F)c1ccc(C(O)CC(O)(C(F)(F)F)C(F)(F)F)cc1 (stereo unspecified)
inactive: T47D 13.3 µM | NCI-H522 18.3 µM | 786-0 20.4 µM | UACC-62 12.2 µM | SF-268 14.9 µM | PC-3 18.2 µM | SK-MEL-28 16 µM | SF-295 18.2 µM | DU-145 15 µM | SNB-19 17.1 µM | A549 14.4 µM | MDA-N 19.5 µM | K562 15.9 µM | OVCAR-4 15.7 µM | SK-OV-3 17 µM | HL-60 17.1 µM

C(CCCCc1nnc(N2CCCCC2)o1)CCCc1nnc(N2CCCCC2)o1
inactive: NCI-H522 > 100 µM | 786-0 > 100 µM | NCI-H226 > 100 µM | SF-268 > 100 µM | PC-3 > 100 µM | KM12 > 100 µM | SK-MEL-28 > 100 µM | SF-295 > 100 µM | DU-145 > 100 µM | MCF7 > 100 µM | SNB-19 > 100 µM | A549 > 100 µM | K562 > 100 µM | OVCAR-4 > 100 µM | SK-OV-3 > 100 µM | HL-60 > 100 µM

O=C(NCc1cccc(C(F)(F)F)c1)c1cc2sccc2nc1C(F)(F)F
inactive: T47D > 100 µM | NCI-H522 62.7 µM | 786-0 25.5 µM | UACC-62 > 100 µM | NCI-H226 98.9 µM | SF-268 64 µM | PC-3 > 100 µM | KM12 > 100 µM | SK-MEL-28 > 100 µM | SF-295 46.7 µM | MCF7 > 100 µM | SNB-19 34.6 µM | A549 > 100 µM | MDA-N > 100 µM | K562 > 100 µM | OVCAR-4 32.7 µM | SK-OV-3 81.5 µM

C=CCN1C(=O)/C(=C/c2ccccc2)NC1=S
inactive: T47D > 100 µM | NCI-H522 94.6 µM | 786-0 > 100 µM | UACC-62 > 100 µM | NCI-H226 15.6 µM | SF-268 > 100 µM | PC-3 > 100 µM | KM12 > 100 µM | SK-MEL-28 > 100 µM | SF-295 > 100 µM | DU-145 > 100 µM | MCF7 > 100 µM | SNB-19 > 100 µM | A549 88.9 µM | K562 84.5 µM | OVCAR-4 > 100 µM | SK-OV-3 > 100 µM | HL-60 43.5 µM

COc1ccc(-c2[nH]c(=O)n(C3OC(CO)C(O)C(O)C3O)c(=O)c2C#N)cc1 (stereo unspecified)
inactive: T47D > 100 µM | NCI-H522 > 100 µM | 786-0 > 100 µM | UACC-62 > 100 µM | NCI-H226 > 100 µM | SF-268 > 100 µM | PC-3 > 100 µM | KM12 > 100 µM | SK-MEL-28 > 100 µM | SF-295 > 100 µM | DU-145 > 100 µM | MCF7 > 100 µM | SNB-19 > 100 µM | A549 > 100 µM | K562 > 100 µM | OVCAR-4 > 100 µM | SK-OV-3 > 100 µM

COC(=O)[C@@H](Cc1ccccc1)NNC(=O)OC(C)(C)C
inactive: T47D > 100 µM | NCI-H522 > 100 µM | 786-0 > 100 µM | UACC-62 > 100 µM | SF-268 > 100 µM | PC-3 > 100 µM | KM12 > 100 µM | SK-MEL-28 > 100 µM | SF-295 > 100 µM | DU-145 > 100 µM | MCF7 > 100 µM | A549 > 100 µM | K562 > 100 µM | OVCAR-4 > 100 µM | SK-OV-3 > 100 µM | HL-60 > 100 µM

Cc1cc2c(cc1C)[n+]([O-])c(C(=O)CC(=O)C(=O)Nc1ccccc1C(C)C)c(C)[n+]2[O-]
inactive: NCI-H522 > 100 µM | 786-0 > 100 µM | UACC-62 > 100 µM | NCI-H226 > 100 µM | SF-268 > 100 µM | KM12 > 100 µM | SK-MEL-28 > 100 µM | SF-295 > 100 µM | SNB-19 > 100 µM | A549 > 100 µM | K562 > 100 µM | OVCAR-4 > 100 µM | SK-OV-3 > 100 µM | HL-60 > 100 µM

COc1ccccc1CNC1=Nc2ccncc2S(=O)(=O)N1c1ccccc1
inactive: NCI-H522 25.1 µM | 786-0 > 100 µM | UACC-62 35.9 µM | NCI-H226 > 100 µM | PC-3 31 µM | KM12 56.6 µM | SK-MEL-28 > 100 µM | SF-295 41.1 µM | DU-145 97.5 µM | MCF7 79.4 µM | SNB-19 > 100 µM | A549 > 100 µM | K562 71 µM | OVCAR-4 > 100 µM | SK-OV-3 > 100 µM | HL-60 41.1 µM

CC(CO)C1=CC(C#CCOCc2ccccc2)N(C(=O)Oc2ccccc2)c2ccccc21 (stereo unspecified)
inactive: T47D 3.76 µM | NCI-H522 7.73 µM | 786-0 28 µM | UACC-62 2.81 µM | NCI-H226 40.7 µM | SF-268 24.9 µM | PC-3 14.4 µM | KM12 14.9 µM | SK-MEL-28 54.5 µM | SF-295 7.24 µM | DU-145 57.5 µM | SNB-19 32.5 µM | A549 9.98 µM | MDA-N 21.3 µM | K562 8.26 µM | OVCAR-4 3.48 µM | SK-OV-3 34.9 µM | HL-60 26.3 µM

c1ccc2c3c([nH]c2c1)C1C2CCCCN2C(c2ccncc2)N1CC3 (stereo unspecified)
inactive: NCI-H522 39.2 µM | 786-0 63.4 µM | UACC-62 36.5 µM | SF-268 > 10 µM | KM12 35.9 µM | SK-MEL-28 39.9 µM | SF-295 38.9 µM | SNB-19 25.4 µM | A549 32.2 µM | K562 32.1 µM | OVCAR-4 61.5 µM | SK-OV-3 36.6 µM | HL-60 21.5 µM

CC(C)C1=CC23CCC4C(C)(C(=O)O)CCCC4(C)C2CC1C(C(=O)O)C3C(=O)O (stereo unspecified)
inactive: T47D > 100 µM | NCI-H522 > 100 µM | 786-0 > 100 µM | UACC-62 > 100 µM | NCI-H226 > 100 µM | SF-268 > 100 µM | PC-3 > 100 µM | KM12 > 100 µM | SK-MEL-28 > 100 µM | SF-295 > 100 µM | DU-145 > 100 µM | SNB-19 > 100 µM | A549 > 100 µM | K562 > 100 µM | OVCAR-4 > 100 µM

CC(C)(CCCCC(C)(C)[N+](C)(C)C)[N+](C)(C)C
inactive: T47D > 100 µM | NCI-H522 > 100 µM | 786-0 > 100 µM | SF-268 > 100 µM | PC-3 > 100 µM | SK-MEL-28 > 100 µM | MCF7 > 100 µM | SNB-19 > 100 µM | A549 > 100 µM | MDA-N > 100 µM | K562 > 100 µM | OVCAR-4 > 100 µM | SK-OV-3 > 100 µM | HL-60 > 100 µM

COC(=O)NCCc1n[nH]c2c1C(=O)C=C(OC)C2=O
inactive: NCI-H522 23.9 µM | 786-0 19.5 µM | UACC-62 25.4 µM | NCI-H226 23 µM | SF-268 18.5 µM | PC-3 34.9 µM | KM12 20.9 µM | SK-MEL-28 20.1 µM | SF-295 18.2 µM | DU-145 52.6 µM | MCF7 27.2 µM | SNB-19 21.3 µM | A549 46.7 µM | MDA-N 17.9 µM | K562 17.5 µM | OVCAR-4 19.6 µM | SK-OV-3 > 100 µM | HL-60 16.6 µM

COC1=CC(=O)C[C@@H](C)[C@]12Oc1c(Cl)c(OC)cc(OC)c1C2=O [GRISEOFULVIN]
inactive: T47D 38.2 µM | NCI-H522 8.11 µM | 786-0 50.1 µM | UACC-62 18.6 µM | NCI-H226 52.8 µM | SF-268 > 68.9 µM | PC-3 10.8 µM | KM12 6.04 µM | SK-MEL-28 99.3 µM | SF-295 21.8 µM | DU-145 39.7 µM | MCF7 9.62 µM | SNB-19 35.2 µM | A549 63.5 µM | K562 3.47 µM | OVCAR-4 38.2 µM | SK-OV-3 35.4 µM | HL-60 6.7 µM
